Measurements published in ChEMBL document CHEMBL4680144, “N-thiadiazole-4-hydroxy-2-quinolone-3-carboxamides bearing heteroaromatic rings as novel antibacterial agents: Design, synthesis, biological evaluation and target identification” (Eur J Med Chem, 2020).
Values after ≈ are worked out from the molar mass of the structure shown. Active and inactive are the calls of the source. The calls are words filed in the database; no cut-off is given here.

Experiments:
[1] = tested on: Staphylococcus aureus; test: Antibacterial activity against methicillin-resistant Staphylococcus aureus clinical isolate 15-2 assessed as inhibition of bacterial growth incubated for 18 to 24 hrs by broth microdilution method; type: functional; conditions: time 18-24 hrs
[2] = tested on: Staphylococcus aureus; test: Antibacterial activity against methicillin-resistant Staphylococcus aureus clinical isolate 15-3 assessed as inhibition of bacterial growth incubated for 18 to 24 hrs by broth microdilution method; type: functional; conditions: time 18-24 hrs
[3] = tested on: Staphylococcus aureus; test: Antibacterial activity against methicillin-resistant Staphylococcus aureus clinical isolate 15-6 assessed as inhibition of bacterial growth incubated for 18 to 24 hrs by broth microdilution method; type: functional; conditions: time 18-24 hrs
[4] = tested on: Staphylococcus aureus; test: Antibacterial activity against methicillin-resistant Staphylococcus aureus clinical isolate 15-7 assessed as inhibition of bacterial growth incubated for 18 to 24 hrs by broth microdilution method; type: functional; conditions: time 18-24 hrs
[5] = tested on: Staphylococcus aureus; test: Antibacterial activity against methicillin-resistant Staphylococcus aureus clinical isolate 15-9 assessed as inhibition of bacterial growth incubated for 18 to 24 hrs by broth microdilution method; type: functional; conditions: time 18-24 hrs
[6] = tested on: Staphylococcus aureus; test: Antibacterial activity against methicillin resistant and vancomycin-intermediate sensitive Staphylococcus aureus ATCC 700699 assessed as inhibition of bacterial growth incubated for 18 to 24 hrs by broth microdilution method; type: functional; conditions: time 18-24 hrs
[7] = tested on: Staphylococcus aureus; test: Antibacterial activity against methicillin resistant and vancomycin-intermediate sensitive Staphylococcus aureus ATCC 700788 assessed as inhibition of bacterial growth incubated for 18 to 24 hrs by broth microdilution method; type: functional; conditions: time 18-24 hrs
[8] = tested on: Staphylococcus epidermidis; test: Antibacterial activity against methicillin-sensitive Staphylococcus epidermidis clinical isolate 15-3 assessed as inhibition of bacterial growth incubated for 18 to 24 hrs by broth microdilution method; type: functional; conditions: time 18-24 hrs
[9] = tested on: Staphylococcus epidermidis; test: Antibacterial activity against methicillin-sensitive Staphylococcus epidermidis clinical isolate 15-4 assessed as inhibition of bacterial growth incubated for 18 to 24 hrs by broth microdilution method; type: functional; conditions: time 18-24 hrs
[10] = tested on: Staphylococcus epidermidis; test: Antibacterial activity against methicillin-resistant Staphylococcus epidermidis clinical isolate 15-1 assessed as inhibition of bacterial growth incubated for 18 to 24 hrs by broth microdilution method; type: functional; conditions: time 18-24 hrs
[11] = tested on: Staphylococcus epidermidis; test: Antibacterial activity against methicillin-resistant Staphylococcus epidermidis clinical isolate 15-2 assessed as inhibition of bacterial growth incubated for 18 to 24 hrs by broth microdilution method; type: functional; conditions: time 18-24 hrs
[12] = tested on: Staphylococcus epidermidis; test: Antibacterial activity against methicillin-resistant Staphylococcus epidermidis clinical isolate 15-3 assessed as inhibition of bacterial growth incubated for 18 to 24 hrs by broth microdilution method; type: functional; conditions: time 18-24 hrs
[13] = tested on: Enterococcus faecalis; test: Antibacterial activity against Enterococcus faecalis clinical isolate 15-2 assessed as inhibition of bacterial growth incubated for 18 to 24 hrs by broth microdilution method; type: functional; conditions: time 18-24 hrs
[14] = tested on: Enterococcus faecalis; test: Antibacterial activity against vancomycin-resistant Enterococcus faecalis ATCC 700802 assessed as inhibition of bacterial growth incubated for 18 to 24 hrs by broth microdilution method; type: functional; conditions: time 18-24 hrs
[15] = Metabolic stability in mouse liver microsomes assessed as intrinsic clearance preincubated for 5 mins followed by NADPH addition and measured up to 60 mins by LC-MS/MS analysis; type: ADME, Microsome; conditions: time 65 min, read-out: CLH
[16] = Half life in Kunming mouse at 10 mg/kg, po measured upto 72 hrs by HPLC analysis; type: ADME, organism-based; conditions: in vivo
[17] = Cmax in Kunming mouse at 10 mg/kg, po measured upto 72 hrs by HPLC analysis; type: ADME, organism-based; set-up: route oral, dose 10 mg/kg, time <=72; conditions: in vivo
[18] = tested on: Staphylococcus aureus; test: (§1) In vivo antibacterial activity against methicillin resistant Staphylococcus aureus clinical isolate 15-1 infected in kunming mouse assessed as animal survival rate at 9 mg/kg, po administered 6 hrs prior to bacterial infection and at 0 and 6 hrs post infection and measured for 7 days (reference value: 12.5 %); type: functional; conditions: 15-1, po, 168 h, time 7 day
[19] = tested on: Staphylococcus aureus; test: as §1, with “3” for “9”; type: functional; conditions: 15-1, po, 168 h, time 7 day
[20] = tested on: Staphylococcus aureus; test: Inhibition of Staphylococcus aureus Gyrase B assessed as reduction in supercoiled pBR322 DNA production incubated for 30 mins by ethidium bromide staining based agarose gel electrophoresis method; conditions: dose 0.1-100 µM
[21] = biological target: DNA topoisomerase 4 subunit B (Staphylococcus aureus, UniProt P0C1S7); test: Inhibition of Staphylococcus aures ParE using pBR322 DNA as substrate in presence of ATP
[22] = tested on: Staphylococcus aureus; test: In vivo antibacterial activity against methicillin-resistant Staphylococcus aureus clinical isolate 15-1 infected in Kunming mouse assessed as protection from systemic infection up to 50 mg/kg, po administered twice after bacterial infection; type: functional, organism-based; conditions: dose mg/kg <=50
[23] = tested on: Staphylococcus aureus; test: Potency index, ratio of vancomycin MIC to test compound MIC for antibacterial activity against methicillin-resistant Staphylococcus aureus clinical isolate 15-6 assessed as inhibition of bacterial growth incubated for 18 to 24 hrs by broth microdilution method; type: functional; conditions: time 18-24 hrs
[24] = tested on: Staphylococcus aureus; test: Potency index, ratio of vancomycin MIC to test compound MIC for antibacterial activity against methicillin-resistant Staphylococcus aureus clinical isolate 15-7 assessed as inhibition of bacterial growth incubated for 18 to 24 hrs by broth microdilution method; type: functional; conditions: time 18-24 hrs
[25] = tested on: Staphylococcus aureus; test: Potency index, ratio of vancomycin MIC to test compound MIC for antibacterial activity against methicillin resistant and vancomycin-intermediate sensitive Staphylococcus aureus ATCC 700788 assessed as inhibition of bacterial growth incubated for 18 to 24 hrs by broth microdilution method; type: functional; conditions: time 18-24 hrs
[26] = tested on: Enterococcus faecalis; test: Potency index, ratio of vancomycin MIC to test compound MIC for antibacterial activity against Enterococcus faecalis clinical isolate 15-1 assessed as inhibition of bacterial growth incubated for 18 to 24 hrs by broth microdilution method; type: functional; conditions: time 18-24 hrs

DNA topoisomerase 4 subunit B, sequence (P0C1S7 whole entry): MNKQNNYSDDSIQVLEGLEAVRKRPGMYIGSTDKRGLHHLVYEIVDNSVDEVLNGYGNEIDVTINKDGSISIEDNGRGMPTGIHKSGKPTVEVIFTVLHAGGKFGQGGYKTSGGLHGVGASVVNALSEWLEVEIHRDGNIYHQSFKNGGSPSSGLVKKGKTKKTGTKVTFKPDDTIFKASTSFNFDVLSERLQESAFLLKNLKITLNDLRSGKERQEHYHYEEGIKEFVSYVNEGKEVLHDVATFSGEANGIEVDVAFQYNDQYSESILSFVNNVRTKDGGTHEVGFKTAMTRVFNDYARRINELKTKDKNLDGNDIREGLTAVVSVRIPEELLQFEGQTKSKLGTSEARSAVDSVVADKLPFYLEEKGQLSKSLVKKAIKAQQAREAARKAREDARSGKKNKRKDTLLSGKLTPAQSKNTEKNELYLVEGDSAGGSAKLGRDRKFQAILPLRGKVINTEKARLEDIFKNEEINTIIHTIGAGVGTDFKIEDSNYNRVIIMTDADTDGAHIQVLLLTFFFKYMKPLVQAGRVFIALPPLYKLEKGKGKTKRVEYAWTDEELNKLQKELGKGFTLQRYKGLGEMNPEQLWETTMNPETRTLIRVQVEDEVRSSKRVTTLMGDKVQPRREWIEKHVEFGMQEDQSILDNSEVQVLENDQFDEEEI

Compound: CCn1c(=O)c(C(=O)Nc2nnc(-c3nccs3)s2)c(O)c2ccccc21
- MIC [1]: 0.5 µg/mL (≈ 1.25 µM)
- MIC [2]: 0.5 µg/mL (≈ 1.25 µM)
- MIC [3]: 0.5 µg/mL (≈ 1.25 µM)
- MIC [4]: 0.5 µg/mL (≈ 1.25 µM)
- MIC [5]: 0.25 µg/mL (≈ 0.626 µM)
- MIC [6]: 0.5 µg/mL (≈ 1.25 µM)
- MIC [7]: 0.5 µg/mL (≈ 1.25 µM)
- MIC [8]: 0.5 µg/mL (≈ 1.25 µM)
- MIC [9]: 0.5 µg/mL (≈ 1.25 µM)
- MIC [10]: 0.5 µg/mL (≈ 1.25 µM)
- MIC [11]: 0.5 µg/mL (≈ 1.25 µM)
- MIC [12]: 0.5 µg/mL (≈ 1.25 µM)
- MIC [13]: 0.5 µg/mL (≈ 1.25 µM)
- MIC [14]: 0.5 µg/mL (≈ 1.25 µM)
- microsomal CLint [15]: 38.9 µL/min/mg
- half-life [16]: 2.3 h
- Cmax [17]: 827 ng/mL
- survival at 9 mg/kg [18]: 87.5%
- survival at 3 mg/kg [19]: 50%
- inhibition [20]: Dose-dependent effect
- IC50 [21]: > 100 µM
- Activity [22]: inactive
- Ratio [23]: 2
- Ratio [24]: 2
- Ratio [25]: 2
- Ratio [26]: 2
